From patent US20160029683A1, “LOW CALORIE INFANT FORMULA CONTAINING BETA-HYDROXY-BETA-METHYLBUTYRIC ACID” (ABBOTT LABORATORIES, priority 2013, published 2016)
“Also recorded” adds a separate entry of the source.

Legend:
[1] = Blood plasma concentration of HMB in piglets infused with HMB; format: in vivo, neonatal pigs; conditions: pig, intravenous
Procedure: (§1) Overnight fasted neonatal pigs (5-7 days old) were infused with HMB with 0, 20, 100, or 400 μmol·kg^−1·hr^−1 HMB. Blood plasma concentrations of the following circulating substrates were measured. HMB was measured using gas chromatography per the method set forth in: Nissen, Steven (1990). Analysis of β-Hydroxy-β-methyl Butyrate in Plasma by Gas […] Chromatography and Mass Spectrometry Analytical Biochemistry 188, 17-19.

[2] = test system: protein synthesis in skeletal muscles; assay: Fractional rate of protein synthesis in skeletal muscles of HMB-infused piglets; format: in vivo, neonatal pigs
Procedure: as §1
(§2) At the end of the infusion, the piglets were sacrificed and the fractional protein synthesis rates were measured by measuring ^3H incorporation into protein fractions after a flooding dose of L[4-^3H]phenylalanine using the method set forth in Garlick P. J. (1980). A rapid and convenient technique for measuring the rate of protein synthesis in tissues by injection of [3H]Phenylalanine Biochem J 192:719-723. Activation of translation initiation was measured in the stomach, duodenum, jejunum, colon, pancreas, kidney, brain and skin. The abundance of intracellular proteins involved in signaling of protein synthesis and in processes related to protein degradation was measured in tissue homogenates by immunoblotting using commercially available antibodies.

[3] = test system: protein synthesis in the lung; assay: Fractional rate of protein synthesis in the lung of HMB-infused piglets; format: in vivo, neonatal pigs; conditions: infusion rate of 20 μmol·kg^−1·hour^−1 HMB for one hour
Procedure: as §1, §2

[4] = test system: protein synthesis in the spleen; assay: Fractional rate of protein synthesis in the spleen of HMB-infused piglets; format: in vivo, neonatal pigs; conditions: infusion rate of 20 μmol·kg^−1·hour^−1 HMB for one hour
Procedure: as §1, §2

[5] = test system: protein synthesis in longissimus dorsi, gastrocnemius, soleus, diaphragm, duodenum and brain; assay: Comparison of protein synthesis rates after infusion of HMB or leucine; format: in vivo, neonatal pigs; conditions: HMB 20, 100 or 400 μmol kg^−1 h^−1 vs leucine 400 μmol·kg^−1·hour^−1
Procedure: as §1, §2

S6K1 = assay: Phosphorylation of S6K1 in muscles (immunoblotting); format: in vivo, neonatal pigs
Procedure: as §1, §2
The phosphorylation of S6K1 is an indicator of mTORC1 signaling to translation.

4EBP1 = assay: Phosphorylation of 4EBP1 in muscles (immunoblotting); format: in vivo, neonatal pigs
Procedure: as §1, §2
The phosphorylation of 4EBP1 is an indicator of mTORC1 signaling to translation.

elF4E·elF4G complex = assay: Formation of the active elF4E·elF4G complex in muscles; format: in vivo, neonatal pigs
elF2α = assay: Phosphorylation of elF2α in muscles; format: in vivo, neonatal pigs
Procedure: as §1, §2
The formation of phosphorylation of elF2α regulates tRNA-ribosome binding.

eEF2 = assay: Phosphorylation of eEF2 in muscles; format: in vivo, neonatal pigs
Procedure: as §1, §2
The formation of phosphorylation of eEF2 regulates […].

Atrogin-1 = assay: Expression of Atrogin-1 in muscles; format: in vivo, neonatal pigs
Procedure: as §1, §2
Atrogin-1 is a muscle-specific ubiquitin ligase.

MURF1 = assay: Expression of MURF1 in muscles; format: in vivo, neonatal pigs
Procedure: as §1, §2
MURF1 is a muscle-specific ubiquitin ligase.

LC3-II/LC3-I = assay: Ratio of LC3-II/LC3-I in muscles; format: in vivo, neonatal pigs
Procedure: as §1, §2
The ratio of LC3-II/LC3-I is an indicator of autophagy/lysosomal protein degradation.

mTORC1 = mTORC1 signaling to translation (overall analysis); format: in vivo, neonatal pigs; conditions: overall analysis of the piglet data
Procedure: as §1, §2

[6] = test system: markers of protein degradation; assay: Markers of protein degradation (overall analysis); format: in vivo, neonatal pigs; conditions: overall analysis of the piglet data
Procedure: as §1, §2

amino acid transporters = assay: Level of amino acid transporters; format: in vivo, neonatal pigs; conditions: overall analysis of the piglet data
Procedure: as §2

[7] = test system: protein degradation in the muscles of adults; conditions: literature (Smith 2004, 2005); cited from earlier work
[8] = 20 μmol·kg^−1·hour^−1 HMB for one hour, diaphragm
[9] = 20 μmol·kg^−1·hour^−1 HMB for one hour, longissimus dorsi, gastrocnemius and soleus
[10] = 100 μmol·kg^−1·hour^−1 HMB for one hour, longissimus dorsi, gastrocnemius and soleus
[11] = 100 μmol·kg^−1·hour^−1 HMB for one hour, diaphragm
[12] = 20 μmol·kg^−1·hour^−1 HMB for one hour
[13] = 100 μmol·kg^−1·hour^−1 HMB for one hour

concentration at 1 h ([1]; piglets infused with 20 μmol·kg^−1·hr^−1 HMB): 90 µM
concentration at 1 h ([1]; piglets infused with 100 μmol·kg^−1·hr^−1 HMB): 316 µM
concentration at 1 h ([1]; piglets infused with 400 μmol·kg^−1·hr^−1 HMB): 1400 µM
SMILES: CC(C)(O)CC(=O)O [HMB, beta-hydroxy-beta-methylbutyric acid]
fractional rates of protein synthesis in the skeletal muscles ([2]; 20 μmol·kg^−1·hour^−1 HMB, longissimus dorsi, gastrocnemius, soleus and diaphragm, P<0.05): increased
protein synthesis in the gastrocnemius, soleus and diaphragm muscles ([2]; 100 μmol·kg^−1·hour^−1 HMB): not significantly
protein synthesis in the longissimus dorsi muscle ([2]; 100 μmol·kg^−1·hour^−1 HMB, P<0.05): increased
protein synthesis in the skeletal muscles ([2]; 400 μmol·kg^−1·hour^−1 HMB): no significant effect
impact on protein synthesis in 4 muscles (fast twitch, slow twitch, voluntary and involuntary) ([2]; highest dose, 400 μmol kg^−1 h^−1, compared with other doses): least impact
impact on protein synthesis in 4 muscles (fast twitch, slow twitch, voluntary and involuntary) ([2]; lowest dose of HMB 20 μmol kg^−1 h^−1, compared with other doses): greatest impact
protein synthesis in the lung [3]: increase
protein synthesis in the spleen [4]: increase
effectiveness in increasing protein synthesis compared with leucine [5]: equal to or more effective; also recorded: as effective as leucine
phosphorylation of S6K1 (S6K1; [8]): increased
phosphorylation of S6K1 (S6K1; [9]): increased
phosphorylation of S6K1 (S6K1; [10]): increased
phosphorylation of 4EBP1 (4EBP1; [8]): increased
phosphorylation of 4EBP1 (4EBP1; [9]): increased
phosphorylation of 4EBP1 (4EBP1; [11]): not
phosphorylation of 4EBP1 (4EBP1; [10]): increased
formation of active eIF4E·eIF4G complex (elF4E·elF4G complex; [8]): increased
formation of active eIF4E·eIF4G complex (elF4E·elF4G complex; [9]): increased
formation of active eIF4E·eIF4G complex (elF4E·elF4G complex; [11]): not
formation of active eIF4E·eIF4G complex (elF4E·elF4G complex; [10]): increased
phosphorylation of elF2α (elF2α; [12]): did not affect
phosphorylation of elF2α (elF2α; [13]): did not affect
phosphorylation of eEF2 (eEF2; [12]): did not affect
phosphorylation of eEF2 (eEF2; [13]): did not affect
expression of Atrogin-1 (Atrogin-1; [12]): did not affect
expression of Atrogin-1 (Atrogin-1; [13]): did not affect
expression of MURF1 (MURF1; [12]): did not affect
expression of MURF1 (MURF1; [13]): did not affect
ratio of LC3-II/LC3-I (LC3-II/LC3-I; [12]): did not affect
ratio of LC3-II/LC3-I (LC3-II/LC3-I; [13]): did not affect
activation of protein synthesis via mTORC1 (mTORC1): activated protein synthesis by inducing mTORC1
markers of protein degradation [6]: did not affect
level of amino acid transporters (amino acid transporters): did not affect
protein degradation in the muscles of adults [7]: attenuates protein degradation
